According to the NIST ThermoML archive (doi:10.1021/je5010824):

What was measured:
[1] = Liquid; for mass density: 298.15 K, 101.33 kPa, Vibrating tube method; for vapor or sublimation pressure: Ebulliometric method (Recirculating still)
[2] = refractive index (Na D-line) (dimensionless); settings: 298.15 K; 101.33 kPa; Liquid; Standard Abbe refractometry

CCC(O)CO (centres undefined) [1,2-butanediol]
Settings | mass density [kg/m3] | refractive index
[1] | 998.78 | –
[2] | – | 1.4378

[1]
Settings | vapor or sublimation pressure [kPa]
392.06 K | 5.62
397.24 K | 7.21
402.31 K | 8.86
405.41 K | 10
406.54 K | 10.62
412.23 K | 13.56
417.66 K | 16.89
422.15 K | 20
422.48 K | 20.34
427.21 K | 24.45
432.29 K | 29.56
437.41 K | 35.54
440.83 K | 40
442.77 K | 41.92
447.52 K | 50.54
452.13 K | 58.86
457.24 K | 69.36
462.57 K | 81.92
466.64 K | 92.78
469.71 K | 101.3

OCCO [1,2-ethanediol]
[1]
Settings | vapor or sublimation pressure [kPa]
406.1 K | 10
423.29 K | 20
442.17 K | 40
470.4 K | 101.3

Settings | refractive index
[2] | 1.431

CC(O)CO (centres undefined) [1,2-propanediol]
Settings | mass density [kg/m3] | refractive index
[1] | 1031.9 | –
[2] | – | 1.432

[1]
Settings | vapor or sublimation pressure [kPa]
398.25 K | 10
398.26 K | 10
414.88 K | 20
433.22 K | 40
460.69 K | 101.3
